The values below come from patent publication US20230357275A1, “SPIRO-SULFONAMIDE DERIVATIVES AS INHIBITORS OF MYELOID CELL LEUKEMIA-1 (MCL-1) PROTEIN” (Prelude Therapeutics, Incorporated, priority 2020, published 2023).

What is called Ki is the dissociation constant of the complex between target and ligand, obtained from inhibition or displacement. A word on the IC50: it is the concentration that inhibits the measured activity by half.

For assay [1], the target named is T1, MCL-1 (Homo sapiens, UniProt Q07820).
T1 construct: purchased BPS Bioscience
T1 sequence (Q07820 whole entry): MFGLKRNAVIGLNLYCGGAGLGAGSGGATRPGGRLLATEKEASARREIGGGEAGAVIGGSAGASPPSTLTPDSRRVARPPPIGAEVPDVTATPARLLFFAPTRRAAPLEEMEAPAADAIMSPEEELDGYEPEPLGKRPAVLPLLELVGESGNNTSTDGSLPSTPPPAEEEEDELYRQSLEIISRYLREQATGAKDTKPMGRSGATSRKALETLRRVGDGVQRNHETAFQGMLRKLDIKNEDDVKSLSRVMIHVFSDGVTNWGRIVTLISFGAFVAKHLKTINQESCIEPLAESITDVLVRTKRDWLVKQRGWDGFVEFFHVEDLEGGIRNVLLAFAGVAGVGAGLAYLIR
Briefly: Cell free Mcl-1:Bim affinity assay (Mcl-1 Bim), fluorescence polarization competition. The assay is classed as binding. Conditions: 15 nM MCL-1, 5 nM FITC-Bim tracer, 1 hour at room temperature; Ki calculated from IC50 by Nikolovska-Coleska's equation; read-out: BIM_ Ki. The procedure:
The binding affinity of each compound was measured via a fluorescence polarization competition assay, in which the compound competes for the same binding site with the ligand, and thus leads to a dose-dependent anisotropy reduction. The tracer ligand utilized was a fluorescein isothiocyanate labelled peptide (FITC-[…]) derived from Bim (GenScript).
The assay was carried out in black half-area 96-well NBS plate (Coming), containing 15 nM of MCL-1 (BPS Bioscience), 5 nM of FITC-Bim and 3-fold serial diluted test compounds in a total volume of 50 µL of assay buffer (20 mM HEPES, 50 mM NaCl, 0.002% Tween 20, 1 mM TCEP, and 1% DMSO). The reaction plate was incubated for 1 hour at room temperature. The change of anisotropy is measured with an Envision multimode plate reader (PerkinElmer) at emission wavelength 535 nm. Fluorescence polarization was calculated in mP unit and the percentage inhibition was calculated by % inhibition = 100x(mPDMSO-mP)/(mPDMSO-mPPC), in which mPDMSO is the DMSO control, and mPPC is the positive control. IC50 values were determined from a 10-point dose response curve by fitting the percent inhibition against compound concentration using the GraphPad Prism software. The inhibition constant Ki was subsequently calculated according to the Nikolovska-Coleska’s equation (Anal. Biochem., 2004, 332, 261), […]

The subject of assay [2] is H929 cells. Briefly: Cell viability assay (H929 10 FBS). The format is cell-based. The following applies: Homo sapiens, NCI-H929, 24 hours, CellTiTer-Glo or ATPlite, read-out: H929_10FB S IC50. On the procedure: Dispense 10 µL aliquot of prepared H929 cells (1:1 ratio of cells:Trypan Blue (#1450013, Bio-Rad)) onto cell counting slide (#145-0011, Bio-Rad) and obtain cell density and cell viability using cell counter (TC20, Bio-Rad). Remove appropriate volume of resuspended cells from culture flask to accommodate 4000 cells/well @ 10 µL/well. Transfer H929 cells to 50 mL conical (#430290, Corning). Spin down at 1000 rpm for 5 min using tabletop centrifuge (SPINCHRON 15, Beckman). Discard supernatant and resuspend cell pellet in modified RPMI 1640 (#10-040-CV, Coming) cell culture media containing 10% FBS (F2422-500 ML, Sigma), sodium pyruvate (100 mM) (#25-000-CL, Corning), HEPES buffer (1 M) (#25-060-CL, Coming) and glucose (200 g/L) (A24940-01, Gibco) to a cell density of 400,000 cells/mL. Dispense 10 µL of resuspended H929 cells per well in 384-well small volume TC treated plate (#784080, Greiner Bio-one) using standard cassette (#50950372, Thermo Scientific) on Multi-drop Combi (#5840310, Thermo Scientific) in laminar flow cabinet. Dispense compounds onto plates using digital liquid dispenser (D300E, Tecan). Incubate plates in humidified tissue culture incubator @ 37° C. for 24 hours. […] Read plates with microplate reader (PheraStar, BMG Labtech) using 384 well luminescence mode.
Background: In ATP-based viability assays light output follows the ATP content of the culture.

The structures appear in SMILES notation.

With `CN(C)C(=O)O[C@H]1/C=C/COC(C)(C)C(=O)NS(=O)(=O)c2ccc3c(c2)N(C[C@@H]2CC[C@H]21)C[C@@]1(CCCc2cc(Cl)ccc21)CO3` [Example 34, [(3R,6R,7S,8E,22S)-6′-Chloro-12,12-dimethyl-13,15,15-trioxo-spiro [11,20-dioxa-15-thia-1,14-diazatetracyclo[14.7.2.03,6.019,24]pentacosa-8,16,18,24-tetraene-22,1′-tetralin]-7-yl] N,N-dimethylcarbamate], the inhibition constant Ki in assay [1] is less than 1 nM. The IC50 in assay [2] is less than 500 nM.
